Test results published in patent US20230167088A1, “1-PYRAZINYLPYRAZOLYL-3-OXYALKYL ACIDS AND THEIR DERIVATIVES, AND THEIR USE FOR CONTROL OF UNDESIRED PLANT GROWTH” (BAYER AKTIENGESELLSCHAFT, priority 2020, published 2023).

Experiments:
ALOMY [1] = assay: Herbicidal post-emergence action 1a (greenhouse pots, visual rating); type: in vivo, Alopecurus myosuroides; conditions: Dosage 80 g/ha; rated visually about 3 weeks after treatment; 100% = plants have died, 0% = like control plants
Procedure, shortened: (§1)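 Visual scoring versus untreated plants (100% = plants dead, 0% = as control) followed roughly 3 weeks in the greenhouse after treatment. Plants grown in sandy loam pots had been sprayed on green parts at the one-leaf stage, 2–3 weeks post-sowing, with aqueous WP/EC preparations containing 0.5% additive, 600 l/ha, at 320 and/or 80 g/ha.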

POAAN [2] = assay: Herbicidal post-emergence action 1b (twin sowing, 1280 g/ha); type: in vivo, Poa annua; conditions: dosage 1280 g/ha, visual rating about 3 weeks after treatment
Procedure, shortened: (§2)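 Visual % activity vs untreated controls, ~3 wk after treatment (100% = dead, 0% = like control). Plants: one mono- plus one dicot weed species per pot, sandy loam, greenhouse; sprayed at one-leaf stage (2–3 wk post-sowing). Aqueous WP/EC, 0.5% additive, 600 L/ha water.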

DIGSA [3] = assay: as above; type: in vivo, Digitaria sanguinalis; conditions: dosage 1280 g/ha, visual rating about 3 weeks after treatment
Procedure, shortened: as §2

ECHCG [4] = assay: as above; type: in vivo, Echinochloa crus-galli; conditions: dosage 1280 g/ha, visual rating about 3 weeks after treatment
Procedure, shortened: as §2

ABUTH = assay: as above; type: in vivo, Abutilon theophrasti; conditions: dosage 1280 g/ha, visual rating about 3 weeks after treatment
Procedure, shortened: as §2

MATIN [5] = assay: as above; type: in vivo, Matricaria inodora; conditions: dosage 1280 g/ha, visual rating about 3 weeks after treatment
Procedure, shortened: as §2

STEME [6] = assay: as above; type: in vivo, Stellaria media; conditions: dosage 1280 g/ha, visual rating about 3 weeks after treatment
Procedure, shortened: as §2

ALOMY [7] = assay: Herbicidal pre-emergence action 2a (greenhouse pots, visual scoring); type: in vivo, Alopecurus myosuroides; conditions: dosage 320 g/ha, visual scoring after about 3 weeks
Procedure, shortened: (§3)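 Dose levels were 320 g/ha and/or 80 g/ha, delivered as an aqueous spray of wettable powder or emulsion concentrate plus 0.5% additive onto soil over sown seeds. Plants grew under good greenhouse conditions for about 3 weeks before visual percentage rating versus untreated pots.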

AVEFA = assay: as above; type: in vivo, Avena fatua; conditions: dosage 320 g/ha, visual scoring after about 3 weeks
Procedure, shortened: as §3

ECHCG [8] = assay: as above; type: in vivo, Echinochloa crus-galli; conditions: dosage 320 g/ha, visual scoring after about 3 weeks
Text: (§4) [table] a) Seeds of monocotyledonous and dicotyledonous weed plants and crop plants are placed in plastic or organic plant pots and covered with soil. The compounds of the invention, formulated in the form of wettable powders (WP) or as emulsion concentrates (EC), are then applied onto the surface of the covering soil as aqueous suspension or emulsion with addition of 0.5% additive at a water application rate of 600 1/ha (converted). After the treatment, the pots are placed in a greenhouse and kept under good growth conditions for the trial plants. After about 3 weeks, the effect of the preparations is scored visually in comparison with untreated controls as percentages. For example, 100% activity=the plants have died, 0% activity=like control plants. Tables B1 to B15 below show the effects of selected compounds of the general formula (I) according to Tables 1 and 2 on various harmful plants and an application rate corresponding to 320 g/ha and/or 80 g/ha, which were obtained by the experimental procedure mentioned above.

SETVI = assay: as above; type: in vivo, Setaria viridis; conditions: dosage 320 g/ha, visual scoring after about 3 weeks vs untreated controls
Procedure, shortened: as §3

AMARE [9] = assay: as above; type: in vivo, Amaranthus retroflexus; conditions: dosage 320 g/ha, visual scoring after about 3 weeks vs untreated controls
Procedure, shortened: as §3

MATIN [10] = assay: as above; type: in vivo, Matricaria inodora; conditions: dosage 320 g/ha, visual scoring after about 3 weeks vs untreated controls
Procedure, shortened: as §3

PHBPU [11] = assay: as above; type: in vivo, Pharbitis purpurea; conditions: dosage 320 g/ha, visual scoring after about 3 weeks vs untreated controls
Text: as §4

POLCO = assay: as above; type: in vivo, Polygonum convolvulus; conditions: dosage 320 g/ha, visual scoring after about 3 weeks vs untreated controls
Procedure, shortened: as §3

VIOTR = assay: as above; type: in vivo, Viola tricolor; conditions: dosage 320 g/ha, visual scoring after about 3 weeks vs untreated controls
Procedure, shortened: as §3

VERPE = assay: as above; type: in vivo, Veronica persica; conditions: dosage 320 g/ha, visual scoring after about 3 weeks vs untreated controls
Procedure, shortened: as §3

POAAN [12] = assay: Herbicidal pre-emergence action 2b (doubly sown, 1280 g/ha); type: in vivo, Poa annua; conditions: doubly sown pots, dosage 1280 g/ha, visual scoring after about 3 weeks
Procedure, shortened: (§5)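 Pre-emergence soil-surface spray (WP/EC formulation, 0.5% additive, 600 L/ha water) onto covered seeds in sandy loam, doubly sown per pot. Greenhouse ~3 wk; % effect scored visually against untreated pots.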

DIGSA [13] = assay: as above; type: in vivo, Digitaria sanguinalis; conditions: doubly sown pots, dosage 1280 g/ha, visual scoring after about 3 weeks
Procedure, shortened: as §5

ECHCG [14] = assay: as above; type: in vivo, Echinochloa crus-galli; conditions: doubly sown pots, dosage 1280 g/ha, visual scoring after about 3 weeks
Procedure, shortened: as §5

AMARE [15] = assay: as above; type: in vivo, Amaranthus retroflexus; conditions: doubly sown pots, dosage 1280 g/ha, visual scoring after about 3 weeks
Procedure, shortened: as §5

MATIN [16] = assay: as above; type: in vivo, Matricaria inodora; conditions: doubly sown pots, dosage 1280 g/ha, visual scoring after about 3 weeks
Procedure, shortened: as §5

STEME [17] = assay: as above; type: in vivo, Stellaria media; conditions: doubly sown pots, dosage 1280 g/ha, visual scoring after about 3 weeks
Procedure, shortened: as §5

ECHCG [18] = assay: Herbicidal post-emergence action 1a (greenhouse pots, visual rating); type: in vivo, Echinochloa crus-galli; conditions: Dosage 80 g/ha; rated visually about 3 weeks after treatment; 100% = plants have died, 0% = like control plants
Procedure, shortened: as §1

PHBPU [19] = assay: as above; type: in vivo, Pharbitis purpurea; conditions: dosage 80 g/ha, visual rating about 3 weeks after treatment
Procedure, shortened: as §1

LOLRI = assay: Herbicidal pre-emergence action 2a (greenhouse pots, visual scoring); type: in vivo, Lolium rigidum; conditions: dosage 320 g/ha, visual scoring after about 3 weeks vs untreated controls
Procedure, shortened: as §3

SMILES | Post-emergence action against ALOMY in % (ALOMY [1]) | Post-emergence action at 1280 g/ha against POAAN in % (POAAN [2]) | Post-emergence action at 1280 g/ha against DIGSA in % (DIGSA [3]) | Post-emergence action at 1280 g/ha against ECHCG in % (ECHCG [4]) | Post-emergence action at 1280 g/ha against ABUTH in % (ABUTH) | Post-emergence action at 1280 g/ha against MATIN in % (MATIN [5]) | Post-emergence action at 1280 g/ha against STEME in % (STEME [6]) | Pre-emergence action against ALOMY in % (ALOMY [7]) | Pre-emergence action against AVEFA in % (AVEFA) | Pre-emergence action against ECHCG in % (ECHCG [8]) | Pre-emergence action against SETVI in % (SETVI) | Pre-emergence action against AMARE in % (AMARE [9]) | Pre-emergence action against MATIN in % (MATIN [10]) | Pre-emergence action against PHBPU in % (PHBPU [11]) | Pre-emergence action against VIOTR in % (VIOTR) | Pre-emergence action against VERPE in % (VERPE) | Pre-emergence action at 1280 g/ha against POAAN in % (POAAN [12]) | Pre-emergence action at 1280 g/ha against DIGSA in % (DIGSA [13]) | Pre-emergence action at 1280 g/ha against ECHCG in % (ECHCG [14]) | Pre-emergence action at 1280 g/ha against AMARE in % (AMARE [15]) | also measured
COCCOCCOC(=O)COc1nn(-c2cnccn2)c(-c2ccc(F)nc2)c1Br [Example I-67] | 90% | 100% | 100% | 90% | 90% | 100% | 90% | 100% | 80% | 90% | 90% | 100% | 80% | 80% | 90% | 90% | 100% | 100% | 100% | 100% | Pre-emergence action against POLCO in % (POLCO): 90%; Pre-emergence action at 1280 g/ha against MATIN in % (MATIN [16]): 100%; Pre-emergence action at 1280 g/ha against STEME in % (STEME [17]): 100%
COCCOC(=O)COc1nn(-c2cnccn2)c(-c2ccc(F)nc2)c1Br [Example I-68] | 80% | 100% | 100% | 100% | 100% | 90% | 100% | 100% | 90% | 90% | 100% | 100% | 90% | 80% | 90% | 90% | 100% | 100% | 100% | 100% | Post-emergence action against ECHCG in % (ECHCG [18]): 80%; Post-emergence action against PHBPU in % (PHBPU [19]): 80%; Pre-emergence action against LOLRI in % (LOLRI): 80%; Pre-emergence action at 1280 g/ha against MATIN in % (MATIN [16]): 100%; Pre-emergence action at 1280 g/ha against STEME in % (STEME [17]): 100%
